The values below come from US10919852B2, “Immunomodulator compounds” (CHEMOCENTRYX, INC., priority 2017, dated 2021).

As a reminder, the IC50 is the concentration that gives 50% inhibition. Read a high IC50 as lower potency.

The target in this experiment is human PD-L1 / Human PD-1 (Homo sapiens (Human), UniProt Q9NZQ7). In words: Enzyme-Linked Immunosorbent Assay (ELISA), PD-1/PD-L1 binding. To be noted: plate-coated human PD-L1, biotinylated human PD-1. Put shortly: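 Plates were coated with human PD-L1 at […]. Biotinylated human PD-1 (0.3 μg/mL) was added with 1:5 serially diluted compound for 1 h at 37 °C. Bound PD-1 was detected with streptavidin-HRP (1 h) and TMB (20 min), with absorbance read at 450 nm.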
human PD-L1 / Human PD-1, sequence (Q9NZQ7 19-239): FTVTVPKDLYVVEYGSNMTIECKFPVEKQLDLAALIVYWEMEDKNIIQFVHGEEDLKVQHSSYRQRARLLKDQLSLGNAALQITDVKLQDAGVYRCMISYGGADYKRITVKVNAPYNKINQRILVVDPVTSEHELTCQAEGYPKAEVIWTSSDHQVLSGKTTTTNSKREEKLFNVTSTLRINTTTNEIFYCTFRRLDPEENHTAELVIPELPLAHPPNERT
(An ELISA detects its analyte on a solid surface through an enzyme-linked reagent.)
Turning to `Cc1c(OCCCN2CCC(O)CC2)cccc1-c1cccc2c1CCC2Oc1cc(OCc2cncc(C#N)c2)c(CN[C@H](C(=O)O)[C@@H](C)O)cc1Cl` (some centres unmarked), the IC50 is less than 5 nM.

`Cc1c(OCCCN2CCC[C@H]2CO)cccc1-c1cccc2c1CC[C@@H]2Oc1cc(OCc2cncc(C#N)c2)c(CN[C@H](C(=O)O)[C@@H](C)O)cc1Cl` showed an IC50 of less than 5 nM.

Turning to `Cc1c(OCCCN[C@@H]2CCCC[C@@H]2O)cccc1-c1cccc2c1CC[C@@H]2Oc1cc(OCc2cncc(C#N)c2)c(CN[C@H](C(=O)O)[C@@H](C)O)cc1Cl`, the IC50 is less than 5 nM.

Take `Cc1c(OCCCN2CCC(O)CC2)cccc1-c1cccc2c1CC[C@@H]2Oc1cc(OCc2cncc(C#N)c2)c(CN[C@H](C(=O)OC(C)(C)C)[C@@H](C)O)cc1Cl`: the IC50 was 5 to 500 nM.

`N#Cc1cncc(COc2cc(O[C@H]3CCc4c(-c5cccc(OCCCN6CCC(O)CC6)c5Cl)cccc43)c(Cl)cc2CN[C@@H]2CCCC[C@@H]2O)c1` returned an IC50 of less than 5 nM.

Turning to `N#Cc1cncc(COc2cc(O[C@H]3CCc4c(-c5cccc(OCCCN6CCC(O)CC6)c5Cl)cccc43)c(Cl)cc2CNC(CO)CO)c1`, the IC50 is less than 5 nM.

In turn, `Cc1c(OCCCNC[C@@H](O)CO)cccc1-c1cccc2c1CC[C@@H]2Oc1cc(OCc2cncc(C#N)c2)c(CN[C@H](C(=O)O)[C@@H](C)O)cc1Cl` gave an IC50 of less than 5 nM.

As for `C[C@@](CO)(NCc1cc(Cl)c(O[C@H]2CCc3c(-c4cccc(OCCCN5CC(O)C5)c4Cl)cccc32)cc1OCc1cncc(C#N)c1)C(=O)O`, the IC50 is less than 5 nM.

With `Cc1c(OCCCN2CCC(O)CC2)cccc1-c1cccc2c1CC[C@H]2Oc1cc(OCc2cncc(C#N)c2)c(CN[C@H](C(=O)O)[C@@H](C)O)cc1Cl`, the IC50 was less than 5 nM.

Turning to `Cc1c(OCCCN2CCC(O)CC2)cccc1-c1cccc2c1CC[C@@H]2Oc1cc(OCCCN2CC[C@H](O)C2)c(CN[C@@H]2CCCC[C@@H]2O)cc1Cl`, the IC50 is less than 5 nM.

Regarding `CCOc1cc(O[C@H]2CCc3c(-c4cccc(OCCCN5CC(O)C5)c4C)cccc32)c(Cl)cc1CN[C@@H](CO)C(=O)O`, the IC50 was less than 5 nM.

Consider `CCOc1cc(O[C@H]2CCc3c(-c4cccc(OCCCN5CCC(F)CC5)c4C)cccc32)c(Cl)cc1CN[C@@H](CO)C(=O)O`, for which the IC50 was less than 5 nM.

For `CCOc1cc(O[C@H]2CCc3c(-c4cccc(OCCCN5CC6(CC(O)C6)C5)c4C)cccc32)c(Cl)cc1CN[C@@H](CO)C(=O)O`, the IC50 was less than 5 nM.

Molecule `CN1CCC(COc2cccc(-c3cccc4c3CC[C@@H]4Oc3cc(OCc4cncc(C#N)c4)c(CN[C@H]4CCC(=O)NC4)cc3Cl)c2Cl)C1=O` (some centres unmarked) displayed an IC50 of 5 to 500 nM.

With `CCOc1cc(O[C@H]2CCc3c(-c4cccc(OCCCN5CC(C)(C)C5)c4C)cccc32)c(Cl)cc1CNC[C@@H]1CCC(=O)N1`, the IC50 lay within 5 to 500 nM.

As for `CCOc1cc(O[C@@H]2c3cccc(-c4cccc(OCCCN5CCC(C)(F)CC5)c4C)c3C[C@@H]2F)c(Cl)cc1CNC[C@@H]1CCC(=O)N1`, the IC50 is 5 to 500 nM.

Molecule `CCOc1cc(O[C@H]2CCc3c(-c4cccc(OCCCN5CCC5(C)C)c4C)cccc32)c(Cl)cc1CN1CCNC(=O)CC1` yielded an IC50 of 5 to 500 nM.

`CCOc1cc(O[C@H]2CCc3c(-c4cccc(OCCCN5[C@H](C)CC[C@H]5C)c4C)cccc32)c(Cl)cc1CN1CCC(O)CC1`: the IC50 lay within 5 to 500 nM.

As to `CCOc1cc(O[C@H]2CCc3c(-c4cccc(OCCCN5[C@H](C)CC[C@H]5C)c4C)cccc32)c(Cl)cc1CN1CCC(C(=O)O)CC1`, the IC50 fell in the range of 5 to 500 nM.

Turning to `CCOc1cc(O[C@H]2CCc3c(-c4cccc(OCCCN5[C@H](C)CC[C@H]5C)c4C)cccc32)c(Cl)cc1CN1CCC(C(=O)OC)CC1`, the IC50 was 5 to 500 nM.

Turning to `CCOc1cc(O[C@H]2CCc3c(-c4cccc(OCCCN5[C@H](C)CC[C@H]5C)c4C)cccc32)c(Cl)cc1CN1CCCC[C@@H]1C(=O)O`, the IC50 is 5 to 500 nM.

Consider `CCOc1cc(O[C@H]2CCc3c(-c4cccc(OCCCN5[C@H](C)CC[C@H]5C)c4C)cccc32)c(Cl)cc1CN1CCC[C@H](C(=O)O)C1`, for which the IC50 is 5 to 500 nM.

With `CCOc1cc(O[C@H]2CCc3c(-c4cccc(OCCCN5[C@H](C)CC[C@H]5C)c4C)cccc32)c(Cl)cc1CN1CCC[C@@H](C(=O)O)C1`, the IC50 was in the range of 5 to 500 nM.

`CCOc1cc(O[C@H]2CCc3c(-c4cccc(OCCCN5CCC5(C)C)c4C)cccc32)c(Cl)cc1CN(C)CCC(=O)O` displayed a half-inhibitory concentration (IC50) of 5 to 500 nM.

As to `Cc1c(OCCCN2CCC(O)CC2)cccc1-c1cccc2c1CC[C@@H]2Oc1cc(OCc2cncc(C#N)c2)c(CN(C)[C@H](C(=O)O)[C@@H](C)O)cc1Cl`, the IC50 is less than 5 nM.

`CN(Cc1cc(Cl)c(O[C@H]2CCc3c(-c4cccc(OCCCN5CC(O)C5)c4Cl)cccc32)cc1OCc1cncc(C#N)c1)[C@@](C)(CO)C(=O)O`: the IC50 was less than 5 nM.

Regarding `CCOc1cc(O[C@H]2CCc3c(-c4cccc(OCCCN5CCC5(C)C)c4C)cccc32)c(Cl)cc1CN(C)CCC(=O)OC`, the IC50 lay within 5 to 500 nM.

The molecule `Cc1c(OCCCN2CCC(F)CC2)cccc1-c1cccc2c1CC[C@@H]2Oc1cc(OCc2cncc(C(N)=O)c2)c(CN(C)CCC(=O)O)cc1Cl` returned an IC50 of less than 5 nM.

Molecule `CCOC(=O)CCN(C)Cc1cc(Cl)c(O[C@H]2CCc3c(-c4cccc(OCCCN5CCC5(C)C)c4C)cccc32)cc1OCC` had an IC50 of 5 to 500 nM.

Regarding `CCOc1cc(O[C@H]2CCc3c(-c4cccc(OCCCN5CCC5(C)C)c4C)cccc32)c(Cl)cc1CN(C)CCC(=O)OC(C)(C)C`, the IC50 is 500 to 20000 nM.

Regarding `CCOc1cc(O[C@H]2CCc3c(-c4cccc(OCCCN5CCC5(C)C)c4C)cccc32)c(Cl)cc1CNCCc1nnn[nH]1`, the IC50 lay in the range of 5 to 500 nM.

Molecule `CCOc1cc(O[C@H]2CCc3c(-c4cccc(OCCCN5CCC5(C)C)c4C)cccc32)c(Cl)cc1CNCCn1nn[nH]c1=O` yielded an IC50 of 5 to 500 nM.

`CCOc1cc(O[C@H]2CCc3c(-c4cccc(OCCCN5CCC5(C)C)c4C)cccc32)c(Cl)cc1CN(CC)CCC(=O)OC` displayed an IC50 of 5 to 500 nM.

Regarding `CCOc1cc(O[C@H]2CCc3c(-c4cccc(OCCCN5CCC5(C)C)c4C)cccc32)c(Cl)cc1CN(C)CCc1nnn[nH]1`, the IC50 lay within 5 to 500 nM.

`CCOc1cc(O[C@H]2CCc3c(-c4cccc(OCCCN5CCC5(C)C)c4C)cccc32)c(Cl)cc1CN(C)CCn1nn[nH]c1=O` returned an IC50 of 5 to 500 nM.

As to `CCOc1cc(O[C@H]2CCc3c(-c4cccc(OCCCN5CCC5(C)C)c4C)cccc32)c(Cl)cc1CN(C)CCC(=O)OC(C)C`, the IC50 lay within 5 to 500 nM.

Take `CCOc1cc(O[C@H]2CCc3c(-c4cccc(OCCCN5CCC5(C)C)c4C)cccc32)c(Cl)cc1CN(CC)CCC(=O)O`: the IC50 is 5 to 500 nM.

Regarding `CCOc1cc(O[C@H]2CCc3c(-c4cccc(OCCCN5CCC5(C)C)c4C)cccc32)c(Cl)cc1CN(C)CCCC(=O)OC`, the IC50 lay within 5 to 500 nM.

In the case of `CCOc1cc(O[C@H]2CCc3c(-c4cccc(OCCCN5CCC5(C)C)c4C)cccc32)c(Cl)cc1CN(C)CCCC(=O)O`, the IC50 was less than 5 nM.

For the molecule `CCOc1cc(O[C@H]2CCc3c(-c4cccc(OCCCN5CCC5(C)C)c4C)cccc32)c(Cl)cc1CN(C)CC(C)(C)C(=O)O`, the IC50 was in the range of 5 to 500 nM.

Take `CCOc1cc(O[C@H]2CCc3c(-c4cccc(OCCCN5CCC5(C)C)c4C)cccc32)c(Cl)cc1CN(C)C(C)CC(=O)O` (some centres unmarked): the IC50 is 5 to 500 nM.

As for `CCOc1cc(O[C@H]2CCc3c(-c4cccc(OCCCN5CCC5(C)C)c4C)cccc32)c(Cl)cc1CNCCS(=O)(=O)O`, the IC50 lay within 5 to 500 nM.

`CCOc1cc(O[C@@H]2CCc3c(-c4cccc(OCCCN5CCC5(C)C)c4C)cccc32)c(Cl)cc1CN(C)CCC(=O)O`: the IC50 lay within 500 to 20000 nM.

Molecule `CCOc1cc(O[C@H]2CCc3c(-c4cccc(OCCCN5CCC5(C)C)c4C)cccc32)c(Cl)cc1CN(C)CC(C)C(=O)OC` (some centres unmarked) registered an IC50 of 500 to 20000 nM.

The molecule `CCOc1cc(O[C@H]2CCc3c(-c4cccc(OCCCN5CCC5(C)C)c4C)cccc32)c(Cl)cc1CN(CCC(=O)O)C(C)C` returned an IC50 of 5 to 500 nM.

The molecule `CCOc1cc(O[C@H]2CCc3c(-c4cccc(OCCCN5CCC5(C)C)c4C)cccc32)c(Cl)cc1CN(C)CC(C)C(=O)O` (some centres unmarked) registered an IC50 of 5 to 500 nM.

`CCOc1cc(O[C@H]2CCc3c(-c4cccc(OCCCN5CCC5(C)C)c4C)cccc32)c(Cl)cc1CN1CC[C@@H](C(=O)OC)C1` returned an IC50 of 5 to 500 nM.

`CCOc1cc(O[C@H]2CCc3c(-c4cccc(OCCCN5CCC5(C)C)c4C)cccc32)c(Cl)cc1CN1CC[C@H](C(=O)OC)C1` registered an IC50 of 5 to 500 nM.

`Cc1c(OCCCN2CCC(F)CC2)cccc1-c1cccc2c1CC[C@@H]2Oc1cc(OCc2cncc(C#N)c2)c(CNCCS(=O)(=O)O)cc1Cl` had an IC50 of less than 5 nM.

Molecule `CCOc1cc(O[C@H]2CCc3c(-c4cccc(OCCCN5CCC5(C)C)c4C)cccc32)c(Cl)cc1CN1CC[C@@H](C(=O)O)C1` registered an IC50 of 5 to 500 nM.

`CCOc1cc(O[C@H]2CCc3c(-c4cccc(OCCCN5CCC5(C)C)c4C)cccc32)c(Cl)cc1CNCCB(O)O` came in with an IC50 of 5 to 500 nM.

Molecule `CCOc1cc(O[C@H]2CCc3c(-c4cccc(OCCCN5CCC5(C)C)c4C)cccc32)c(Cl)cc1CN(C)CCCCC(=O)OC` showed an IC50 of 5 to 500 nM.

Molecule `CCOc1cc(O[C@H]2CCc3c(-c4cccc(OCCCN5CCC5(C)C)c4C)cccc32)c(Cl)cc1CNCCCS(=O)(=O)O` showed an IC50 of 5 to 500 nM.

The molecule `CCOc1cc(O[C@H]2CCc3c(-c4cccc(OCCCN5CCC5(C)C)c4C)cccc32)c(Cl)cc1CN(C)CCCCC(=O)O` registered an IC50 of 5 to 500 nM.

In turn, `N#Cc1cncc(COc2cc(O[C@H]3CCc4c(-c5cccc(OCCCN6CCC(F)CC6)c5Cl)cccc43)c(Cl)cc2CN[C@@H]2CCOC[C@H]2F)c1` [drawing 223] displayed an IC50 of 5 to 500 nM.

For `N#Cc1cncc(COc2cc(O[C@H]3CCc4c(-c5cccc(OCCCN6CCC(F)CC6)c5Cl)cccc43)c(Cl)cc2CN[C@@H]2CCOC[C@H]2F)c1` [drawing 224], the IC50 lay in the range of 5 to 500 nM.

Consider `Cc1c(OCCCN2CCC(F)CC2)cccc1-c1cccc2c1CC[C@@H]2Oc1cc(OCc2cc(C#N)cc(C#N)c2)c(CN[C@H]2CCNC2=O)cc1Cl` [drawing 306], for which the IC50 fell in the range of 5 to 500 nM.

`Cc1c(OCCCN2CCC(F)CC2)cccc1-c1cccc2c1CC[C@@H]2Oc1cc(OCc2cc(C#N)cc(C#N)c2)c(CN[C@H]2CCNC2=O)cc1Cl` [drawing 345]: the IC50 was 5 to 500 nM.

For `CCOc1cc(O[C@H]2CCc3c(-c4cccc(OCCCN5CCCC5(C)C)c4C)cccc32)c(Cl)cc1CNC[C@@H]1CCC(=O)N1` [drawing 377], the IC50 is 5 to 500 nM.
